Tests used:
[1] = Gel time by Brookfield viscosity (time to 2500 cps), masterbatch of Examples 1-8 and A-J; design: key to Gel Time @250F (120C): minutes to reach target viscosity (gel time); GEL TIME @ 130°C: unit: min; settings: for GEL TIME @ 130°C: 0.16%Sn, time to reach 2500 cps (gel times in mins)
Procedure: (§1) Solids content was maintained between 50-60%.
(§2) Comparison of catalyst activity was determined by monitoring viscosity as a function of cure time. A Brookfield viscometer fitted with a heated cell was connected to a strip chart recorder. A 10 gram aliquot of the formulation with the desired catalyst was placed in the chamber and rapidly heated to the test temperature. A #27 speed spindle was immersed into the solution and the initial viscosity measured. The rate of increase in viscosity was monitored until a viscosity of 2500 cps was achieved. In almost all the examples the formulation gelled at this viscosity. The time required to reach this viscosity was termed "gel time" at the test temperature. This technique provides information on the time required to reach a target viscosity and on the rate of increase in viscosity for a given system and compares the relative reactivity of different catalysts in a specific formulation at the same temperature. Variability in gel time is +/- 0.5-1.0 mins and is limited by the accuracy of weighing of the catalyst. […] Gel time measurements were then correlated with film properties.
The components were stirred to ensure complete solubility, usually from 2 to 4 hours. • Desmophen A565 (215g, 42.9 wt%) • Desmodur BL 3175 A (140g, 27.9 wt%) • methyl amyl ketone (58.5g, 11.7 wt%) • methy isobutyl ketone (58.5g, 11.7 wt%) • propylene glycol methyl ether acetate (29.0g, 5.8 wt%)
(§3) For each evaluation, a 10g aliquot of this master batch was removed and the appropriate catalyst added.

[2] = Gel time by Brookfield viscosity (time to 2500 cps), masterbatch of Examples 9-12 and K, Zn salts as co-catalysts; settings: 0.16 %Sn, co-catalyst 0.07 %Zn where used
Procedure: as §1, §2
In comparative example K and operative examples 9 to 12 a masterbatch of the following mixture was prepared. The components were stirred to ensure complete solubility, usually from 2 to 4 hours. • Desmophen A565 215g • Desmodur BL 3175 A 140g • Methyl isobutyl ketone 146.4g
as §3

Row | Compound | Gel Time @250F (120C) ([1]; 0.16 %Sn) | Gel Time @266F (130C) ([1]; 0.16 %Sn) [min] | GEL TIME @ 130°C [1] | Gel Time @250F (120C) ([1]; 0.20 %Sn) | Gel Time @266F (130C) ([1]; 0.20 %Sn) [min] | Gel Time @ 120°C [2] [min] | Gel Time @ 125°C [2] [min]
1 | Dibutyl Diacetoxy Stannox n=3 [Example 1] | 36.1 | 17.2 | 17.2 |  |  |  | 
2 | CCC[CH2][Sn]([CH2]CCC)([O]C(C)=O)[O][Sn]([CH2]CCC)([CH2]CCC)[O]C(C)=O [D, Dibutyl Diacetoxy Stannox n=0, reference compound] | 38 | 18.6 | 18.6 |  |  |  | 
3 | CCC[CH2][Sn](=[O])[CH2]CCC [C, Dibutyl Sn Oxide, reference compound] |  | 23.2 | 23.2 |  |  |  | 
4 | CCC[CH2][Sn]([CH2]CCC)([O]C(C)=O)[O]C(C)=O [B, Dibutyl Sn Diacetate, reference compound] | 45 | 21.3 | 21.2 |  |  |  | 
5 | Dibutyl Diformyloxy Stannox (n=14) [Example 6] |  |  |  | 24.1 | 14.4 | 29 | 19
6 | Dibutyl Di Octylmaleate Stannox n=6 [Example 3] |  |  | 20.4 |  |  |  | 
7 | Dibutyl Diformyloxy Stannox (n=6) [Example 5] |  |  |  | 25.6 |  |  | 
8 | CCCCCCCCCCCC(=O)[O][Sn]([CH2]CCC)([CH2]CCC)[O]C(=O)CCCCCCCCCCC [A, Dibutyl Sn Dilaurate, reference compound] |  |  | 22.2 | 48.7 |  | 45 | 29
9 | Dibutyl Diacetoxy Stannox n=6 [Example 2] | 32.5 | 16.5 | 16.4 |  |  |  | 
10 | Dibutyl Diformyloxy Stannox (n=3) [Example 4] |  |  |  | 27.5 | 15.9 |  | 

— patent publication EP0810245A1, “Catalyst for low temperature cure of blocked isocyanates” (ELF ATOCHEM NORTH AMERICA, INC., priority 1996, dated 1997)
